Converted amounts (≈) assume the structure as drawn. “Also recorded” adds a separate entry of the source.
What was measured:
[1] = tested on: herpes simplex virus Type I (HSV I); assay: Inhibition of virus replication (plaque assay, BHK-21 cells); type: cell-based, Type 1, Troisbel strain; conditions: for log reduction at 0.1 µg/mL: 0.1 mg/l; for log reduction at 1 µg/mL: 1 mg/l
Experimental: 1. Mono-layers of baby hamster kidney cells (BHK-21) are prepared in Petri dishes containing ETC medium (Eagle's minimal essential medium +10% tryptose phosphate broth +10% new born calf serum).
2. After incubation the medium is poured off to leave the layer of cells attached to the Petri dish. A solution containing virus, specifically herpes simplex virus Type I (HSV I) for example, in ETC medium is then added to the dish and incubated with intermittent rocking for one hour to allow the virus to adsorb to the cells of the mono-layer. Unadsorbed virus is then removed by pouring off the virus-containing medium and washing twice with new sterile medium. Then new medium is added to each Petri dish. At this stage various concentrations of drug can be added to the medium.
3. […] First the dishes are frozen to -70° C. and thawed to disrupt the mono-layer and break up the cells. Then the medium and the disrupted cells are transferred to bijou bottles and sonicated to break down the cells completely and to release all the virus particles the cells contain. The sonicated medium is then diluted with fresh sterile ETC medium to give concentrations of the original Petri dish fluid of 10^-2, 10^-4, 10^-6 and 10^-8.
4. The number of virus particles (plaque forming units) in the dilutions is then assayed. A standard number of BHK cells (usually 8×10^6) is added to 2 ml of the diluted solutions and incubated for one hour, with cautious, gentle shaking, and 8 ml of Eagle's minimal essential medium +2% new born calf serum + carboxymethyl cellulose is then added to the cell suspension. This medium has gelling properties which prevent spreading of the virus through the medium and which encourage the formation of discrete plaques in cell mono-layers. The medium from each dilution is then dispensed into Petri dishes and incubated for two to three days.
5. The number of plaques formed is then counted and the amount of active virus expressed as the number of plaque forming units (pfus) as follows. The medium is poured off and the cell mono-layer is fixed using 10% formol saline and stained with dilute carbol fuchsin. The number of plaques in each Petri dish is counted. Based on the dilutions, the number of plaque forming virus particles in the original solutions is calculated.
In the Table, the figures are the concentration of viral particles in pfu/ml present in the cells + medium at the end of the replication stage (3).

MT-4 cells = assay: in vitro; type: cell-based; conditions: human, 120 h
Experimental: (§1) Results in relation to HIV virus were obtained by the method of Pauwels et al, Journal of Virological Methods 20, 309 to 321 (1988), as follows:
(§2) MT-4 cells (2.5×10^4 /well) were infected with HIV (100 CCID50) and incubated in the presence of varying concentrations of the test compounds (added immediately after virus infection). After five days incubation at 37° C. in a CO2 incubator, the number of viable cells was assessed by the MTT (tetrazolium) method. Anti-viral activity and cytotoxicity of the compounds are expressed as ED50 (50% effective dose) and CD50 (50% cytotoxic dose), respectively. SI (selectivity index=CD50 /ED50.

in vitro = type: cell-based; conditions: human, mt-4 cells, CD50 (50% cytotoxic dose)
Experimental: as §1, §2

[2] = tested on: herpes simplex virus Type I; assay: Inactivation of virus (30 minutes incubation, plaque assay); type: cell-based, Type 1, Troisbel strain; conditions: for log reduction at 1 µg/mL: 1 mg/l; for Virus titre (inactivation of virus): 30 minutes, control 5.4 × 10^4 (GLA-alcohol), 4.5 × 10^4 (GLA-AZT); for log reduction at 5 µg/mL: 5 mg/l
Experimental: 1. A virus solution containing 2×10^5 pfu/ml is prepared in phosphate buffered saline (Dulbecco's A).
2. The compound to be tested is made up in Dulbecco's medium A in a suitable range of dilutions.
3. Equal volumes of the virus and drug solution are mixed together. Control solutions without drug are also used.
4. The virus and drug are incubated for an appropriate period of time, in this example, thirty minutes.
5. The numbers of active viral particles in the solution are assayed as in items 4 and 5 under A.
The results are shown below (Table 6). In the Table, the figures are concentrations of viral particles present after incubation of the virus for 30 minutes with solutions of the drugs.

LAV-2ROD = assay: Anti-HIV activity assay, LAV-2ROD (MT-4 cells, MTT method); type: cell-based; conditions: for Selectivity index (SI): CD50/ED50, LAV-2ROD; for EC50: MT4, 120 h, MT-4 cells, five days, LAV-2ROD, read-out: ED50 (50% effective dose)
Experimental: as §1, §2
(§3) These are given in Table 8 and Table 9 below in relation to HTLV-IIIB and LAV-2ROD viruses.

HTLV-IIIB = assay: Anti-HIV activity assay, HTLV-IIIB (MT-4 cells, MTT method); type: cell-based; conditions: for Selectivity index (SI): CD50/ED50, HTLV-IIIB; for EC50: Human immunodeficiency virus 1, MT4, 120 h, MT-4 cells, five days, HTLV-IIIB, read-out: ED50 (50% effective dose)
Experimental: as §1, §2, §3

[3] = Human alphaherpesvirus 1, 0.5 h, read-out: Inactivation of virus (log10 reduction in virus titre)
[4] = Human alphaherpesvirus 1, BHK-21, 24 h, read-out: Inhibition of viral replication (log10 reduction in virus titre)

CCCCC/C=C\C/C=C\C/C=C\CCCCC(=O)OC[C@H]1O[C@@H]2C[C@H]1Oc1nc(=O)c(C)cn12 [AK 3, GLA - Anhydrothymidine]
log reduction at 25 µg/mL ([1]; Human alphaherpesvirus 1, BHK-21, 24 h, 25 mg/l, read-out: Inhibition of viral replication (log10 reduction in virus titre)): 0.5 | log reduction at 50 µg/mL ([1]; Human alphaherpesvirus 1, BHK-21, 24 h, 50 mg/l, read-out: Inhibition of viral replication (log10 reduction in virus titre)): 0.9 | log reduction at 100 µg/mL ([1]; Human alphaherpesvirus 1, BHK-21, 24 h, 100 mg/l, read-out: Inhibition of viral replication (log10 reduction in virus titre)): 1.2 | CD50 (50% cytotoxic dose) (MT-4 cells): 16.8593 µg/mL | CC50 at 120 h (in vitro): 17.7 µg/mL (≈ 36.6 µM) | Virucidal activity / inactivation of herpes virus (in words) [2]: virucidal | log reduction at 0.5 µg/mL ([2]; Human alphaherpesvirus 1, 0.5 h, 0.5 mg/l, read-out: Inactivation of virus (log10 reduction in virus titre)): 1.6 | log reduction at 1 µg/mL [2, 3]: 2.7 | % in chloroform phase (partition co-efficients, water/chloroform): > 98% | Selectivity index (SI) (LAV-2ROD): < 1 | EC50 (LAV-2ROD): > 40 µg/mL | Selectivity index (SI) (HTLV-IIIB): < 1 | EC50 (HTLV-IIIB): > 40 µg/mL

CCCCC/C=C\C/C=C\C/C=C\CCCCC(=O)OC[C@@H]1C=C[C@H](n2cc(C)c(=O)[nH]c2=O)O1 [AK 14]
CD50 (50% cytotoxic dose) (MT-4 cells): 8.84 µg/mL | CC50 at 120 h (in vitro): 10.3 µg/mL (≈ 21.2 µM) | Selectivity index (SI) (LAV-2ROD): 110 | EC50 (LAV-2ROD): 0.08 µg/mL (≈ 0.165 µM) | Selectivity index (SI) (HTLV-IIIB): 134 | EC50 (HTLV-IIIB): 0.076 µg/mL (≈ 0.157 µM)

CCCCC/C=C\C/C=C\C/C=C\CCCCCO [GLA alcohol, reference compound]
Inhibition of herpes virus replication (in words) [1]: no effect at all | Virucidal activity / inactivation of herpes virus (in words) [2]: able to inactivate the herpes simplex virus | Virus titre (inactivation of virus) ([2]; 5 μg/ml): 3.0 × 10^3 | Virus titre (inactivation of virus) ([2]; 10 μg/ml): 2.2 × 10^2 | Virus titre (inactivation of virus) ([2]; 25 μg/ml): < 1.0 × 10^2

CCCCC/C=C\C/C=C\CCCCCCCC(=O)Nc1nc2c(ncn2COCCO)c(=O)[nH]1 [AK 13]
log reduction at 0.1 µg/mL [1, 4]: 2.45 | log reduction at 1 µg/mL [1, 4]: 4.3 | Virucidal activity / inactivation of herpes virus (in words) [2]: virucidal | log reduction at 1 µg/mL [2, 3]: 1.3 | log reduction at 5 µg/mL [2, 3]: 1.8

CCCCC/C=C\C/C=C\C/C=C\CCCCC(=O)Nc1nc2c(ncn2COCCO)c(=O)[nH]1 [AK 12]
log reduction at 0.1 µg/mL [1, 4]: 1.9 | log reduction at 1 µg/mL [1, 4]: 3.9 | Virucidal activity / inactivation of herpes virus (in words) [2]: virucidal | log reduction at 1 µg/mL [2, 3]: 0.6 | log reduction at 5 µg/mL [2, 3]: 1.4

CCCCC/C=C\C/C=C\CCCCCCCC(=O)Nc1nc2c(ncn2COCCOC(=O)CCCCCCC/C=C\C/C=C\CCCCC)c(=O)[nH]1 [AK 11]
Inhibition of herpes virus replication (in words) [1]: very effective | log reduction at 1 µg/mL [1, 4]: 1.69 | log reduction at 5 µg/mL ([1]; Human alphaherpesvirus 1, BHK-21, 24 h, 5 mg/l, read-out: Inhibition of viral replication (log10 reduction in virus titre)): 2.46 | CD50 (50% cytotoxic dose) (MT-4 cells): 10.1674 µg/mL | CC50 at 120 h (in vitro): 13.1 µg/mL (≈ 17.5 µM) | Virucidal activity / inactivation of herpes virus (in words) [2]: virucidal; also recorded: very effective | log reduction at 1 µg/mL [2, 3]: 0.15 | log reduction at 5 µg/mL [2, 3]: 1.55 | % in chloroform phase (partition co-efficients, water/chloroform): > 99% | Selectivity index (SI) (LAV-2ROD): < 1 | EC50 (LAV-2ROD): > 40 µg/mL | Selectivity index (SI) (HTLV-IIIB): < 1 | EC50 (HTLV-IIIB): > 40 µg/mL

Source: patent US5216142A, “Anti-virals” (Efamol Holdings plc, priority 1989, dated 1993)
